We go through 21 compounds from patent US5248677A, “Biogentic amine uptake inhibitors” (priority 1992, dated 1993).

Structures can show the parent of a compound that is named as a salt. Some results are limits rather than exact numbers.

Type in all cases: biochemical, rat (Male Sprague-Dawley)
One assay relates to norepinephrine uptake. As to the kind of experiment: NE (norepinephrine) uptake inhibition, synaptosomal preparation (hypothalamus). Conditions: rat hypothalamus synaptosomes, 0.1 μM tritiated amine, 37° C., 4 minutes. Here is the method: (§1) For the purpose of identifying compounds as biogenic amine uptake inhibitors capable of interacting with the uptake carrier, ligand-carrier binding assays were carried out as an initial sceen.
(§2) Male Sprague-Dawley derived rats, weighing about 180-250 g each (purchased from Sasco Animal Laboratories, Oregon, Wis.) were sacrificed by decapitation. The brains were immediately removed, placed on a chilled glass plate and dissected according to a modification of the method of Glowinski and Iversen (J. Glowinski and L. L. Iversen, J Neurochem, 1966, 13: 655-669). First, the rhombencephalon was separated by a transverse section and discarded. The rest of the brain was divided into two portions by making another transverse section at the level of the optic chiasma. The hypothalamus, which was used for norepinephrine uptake studies, was removed from the posterior part by using the anterior commissure as the horizontal reference point and a line between the posterior hypothalamus and mammillary bodies as the caudal limit. The striatum, which was used for dopamine uptake studies, was also dissected from the posterior portion using the external wall of the lateral ventricle as the internal limit and the corpus collosum as the external limit. The frontal parts of the striatum were removed from the anterior portion of the cerebrum and combined with the striatal tissue from the posterior segment. The cortex, which was used for serotonin uptake studies, was composed of the rest of the anterior portion of the cerebrum and the cortical surfaces removed from the posterior segment. The hypothalamus and the striatum each weighed about 100 mg or slightly less, whereas the cortex weighed up to 800 mg. The tissues were placed in a cold Potter-Elvehjem glass homogenizer with 5 (cortex) or 10 (hypothalamus) or 20 (striatum) volumes of ice-cold 0.32M sucrose, pH 7, and homogenized by hand. The homogenate was centrifuged (on a Multifuge®, American Scientific Products) at 2500 rpm for 10 minutes in a refrigerated room (~4° C.). The supernatant fraction containing the synaptosomes was decanted, mixed thoroughly and kept on crushed ice for use in the uptake studies.
(§3) Uptake studies were conducted according to the method of Snyder and Coyle (S. H. Snyder and J. T. Coyle, J Pharmacol Exp Ther, 1969, 165: 78-86) with minor modifications. Usually a 0.1 mL aliquot of the synaptosomal preparation was incubated in a mixture of 0.75 mL of modified Krebs-Ringerbuffer, 0.05 mL of the drug being tested, and 0.1 mL of a 1 μM solution of the labeled (tritiated) amine (final concentration 0.1 μM), for a total volume of 1 mL. The modified Krebs-Ringer bicarbonate buffer used in these studies contained 118 mM sodium chloride, 4 mM potassium chloride, 1.3 mM calcium chloride, 1.12 mM potassium dihydrogen phosphate, 1.2 mM magnesium sulfate and 24 mM sodium bicarbonate, with the addition of 5 mM glucose, 0.15 mM disodium EDTA, 12.5 μM nialamide and 1 mM ascorbic acid. Uptake was initiated by the addition of the tritiated amine and the mixture was incubated at 37° C. in a Dubnoff Metabolic Shaking Incubator for 4 minutes. A preincubation period was not included since it had been reported that results were similar with and without preincubation of the synaptosomal preparation (G. Vosmer, et al. Biochem Pharmacol, 1980, 24: 2557-2562). Control incubations without the test drug were conducted at 37° C. to determine total uptake and at 0° C. (in a crushed ice bath) to correct for the diffusion of the tritiated amine into the synaptosomes and/or binding.
(§4) Filtration was used to terminate uptake and collect the synaptosomes (C. A. Csernansky, et al. J Pharmacol Methods, 1985, 13: 187-191). In the filtration technique, the incubation mixture was diluted with ice-cold 0.9% aqueous sodium chloride solution and filtered through GF/B glass microfiber filters (Whatman) under reduced pressure. […]

The next assay relates to dopamine uptake. Description: DA (dopamine) uptake inhibition, synaptosomal preparation (striatum). To be noted: rat striatum synaptosomes, 0.1 μM tritiated amine, 37° C., 4 minutes. Here is the method: as §1, §2, §3, §4
In the next assay the test system is 5-HT (serotonin) uptake. As to the kind of experiment: 5-HT (serotonin) uptake inhibition, synaptosomal preparation (cortex). Conditions: 5-hydroxytryptamine, rat cortex synaptosomes, 0.1 μM tritiated amine, 37° C., 4 minutes. Here is the method:
as §1, §2, §3, §4

The term IC50 denotes the concentration at which inhibition is half-maximal. The low end stands for greater potency in that assay, the high end for weaker potency in that assay. Regarding `CN1C[C@@H]2c3ccccc3CC[C@@H]2CCC1Cc1ccccc1` (relative stereo) [Example 77, (+)-cis-2-Methyl-1,3,4,5,5a,6,7,11b-octahydro-3-phenylmethyl-2H-naphth[1,2-c]azepine hydrochloride], the IC50 in the assay with norepinephrine uptake was found to be 0.19 µM; in the assay on dopamine uptake it was 5.17 µM; with 5-HT (serotonin) uptake it was 4.17 µM.
For the compound `CN1CC2c3ccccc3CCC2CCC1Cc1ccccc1` (single isomer, unassigned) [Example 75A, cis-2-Methyl-1,3,4,5,5a,6,7,11b-octahydro-3-phenylmethyl-2H-naphth[1,2-c]azepine hydrochloride], the IC50 came to 0.03 µM in the assay on norepinephrine uptake (hydrochloride), 0.444 µM in the assay with dopamine uptake (hydrochloride) and 0.227 µM in the assay on 5-HT (serotonin) uptake (hydrochloride).
For `Cc1cccc(CC2C3CCc4ccccc4C3CN2C)c1` (stereo not drawn) [Example 12, cis-2,3,3a,4,5,9b-Hexahydro-2-methyl-3-(3-methylphenyl)methyl-1H-benz[e]isoindole hydrochloride], the IC50 was found to be 0.037 µM with norepinephrine uptake, 0.571 µM with dopamine uptake and 1.78 µM in the assay on 5-HT (serotonin) uptake.
The like results for `CN1CC2c3ccccc3CCC2C1Cc1ccccc1` (stereo not drawn) [Example 9, cis-2,3,3a,4,5,9b-Hexahydro-2-methyl-3-phenylmethyl-1H-benz[e]isoindole methanesulfonic acid salt] were, in that order, 0.048 µM, 0.54 µM and 6.6 µM.
Turning to `CN1CC2c3ccccc3CCC2CCC1Cc1ccccc1` (single isomer, unassigned) [Example 75B, cis-2-Methyl-1,3,4,5,5a,6,7,11b-octahydro-3-phenylmethyl-2H-naphth[1,2-c]azepine hydrochloride], the IC50 with norepinephrine uptake (hydrochloride) turned out to be 0.513 µM; in the assay with dopamine uptake (hydrochloride), 2.81 µM; with 5-HT (serotonin) uptake (hydrochloride), 4.13 µM.
Consider `COc1cccc2c1CCC1C2CN(C)C1Cc1cccc(F)c1` (stereo not drawn) [Example 24, cis-3-(3-Fluorophenyl)methyl-2,3,3a,4,5,9b-hexahydro-6-methoxy-2-methyl-1H-benz[e]isoindole hydrochloride], for which the results for the IC50 in the assay with norepinephrine uptake, with dopamine uptake and in the assay with 5-HT (serotonin) uptake were 0.104 µM, 0.17 µM and 2.47 µM, respectively.
Consider `COc1ccc2c(c1OC)CCC1C2CN(C)C1Cc1ccccc1` (stereo not drawn) [Example 32, cis-6,7-Dimethoxy-2,3,3a,4,5,9b-hexahydro-2-methyl-3-phenylmethyl-1H-benz[e]isoindole hydrochloride], for which the IC50 in the assay on norepinephrine uptake worked out at 0.113 µM; with dopamine uptake, 0.169 µM; in the assay on 5-HT (serotonin) uptake, 12.7 µM.
The like results for `COc1cccc2c1CCC1C(Cc3ccccc3)NCC21` (stereo not drawn) [Example 21, cis-2,3,3a,4,5,9b-Hexahydro-6-methoxy-3-phenylmethyl-1H-benz[e]isoindole methanesulfonic acid salt] were, in that order, 0.758 µM, 5.49 µM and 13.1 µM.
With `COc1ccc2c(c1)CCC1C2CN(C)C1Cc1ccccc1` (stereo not drawn) [Example 2, cis-2,3,3a,4,5,9b-Hexahydro-7-methoxy-2-methyl-3-phenylmethyl-1H-benz[e]isoindole methanesulfonic acid salt], the values for the IC50 with norepinephrine uptake, in the assay with dopamine uptake and with 5-HT (serotonin) uptake were 0.058 µM, 0.182 µM and 4.16 µM, respectively.
In the same order, the values of `Fc1cccc(CC2NCC3c4ccccc4CCC23)c1` (stereo not drawn) [Example 15, cis-3-(3-Fluorophenyl)methyl-2,3,3a,4,5,9b-hexahydro-1H-benz[e]isoindole hydrochloride] are 0.347 µM, 7.7 µM and 15 µM.
With `COc1ccc2c(c1)CCC1C(Cc3ccccc3)NCC21` (mixture of isomers) [Example 1, cis/trans 2,3,3a,4,5,9b-Hexahydro-7-methoxy-3-phenylmethyl-1H-benz[e]isoindole hydrochloride], the IC50 turned out to be 0.524 µM in the assay on norepinephrine uptake (hydrochloride), 7.62 µM in the assay with dopamine uptake (hydrochloride) and 7.29 µM in the assay with 5-HT (serotonin) uptake (hydrochloride).
`COc1ccc2c(c1)CCC1C(Cc3cccc(F)c3)NCC21` (stereo not drawn) [Example 26, trans-3-(3-Fluorophenyl)methyl-2,3,3a,4,5,9b-hexahydro-7-methoxy-1H-benz[e]isoindole hydrochloride]: the IC50 was found to be 0.603 µM with norepinephrine uptake, 9.04 µM with dopamine uptake and 2.25 µM with 5-HT (serotonin) uptake.
On to `COc1ccc2c(c1)CCC1CC(Cc3ccccc3)N(C)CC21` (stereo not drawn) [Example 72, cis-8-Methoxy-2-methyl-1,2,3,4,4a,5,6,10b-octahydro-3-phenylmethyl-benz[f]isoquinoline hydrochloride], for which the IC50 in the assay with norepinephrine uptake came out at 0.064 µM; in the assay on dopamine uptake it was 1.01 µM; in the assay on 5-HT (serotonin) uptake it was 5.75 µM.
Take `CC1C[C@H]2c3ccccc3CC[C@H]2CN1Cc1ccccc1` (relative stereo) [Example 71B, cis-2-Methyl-1,2,3,4,4a,5,6,10b-octahydro-3-phenylmethyl-benz[f]isoquinoline]: the 50% inhibitory concentration (IC50) in the assay with norepinephrine uptake was determined as 0.0119 µM; in the assay on dopamine uptake it was 0.633 µM; in the assay on 5-HT (serotonin) uptake, 2.05 µM.
Turning to `CN1CC2c3ccccc3CCC2C1Cc1cccc(Cl)c1` (single isomer, unassigned) [Example 47, 3-(3-Chlorophenyl)methyl-2,3,3a,4,5,9b-hexahydro-2-methyl-1H-benz[e]isoindole hydrochloride], the IC50 in the assay with norepinephrine uptake is 0.041 µM; in the assay on dopamine uptake, 0.225 µM; in the assay with 5-HT (serotonin) uptake it was 1.26 µM.
Turning to `CN1CC2c3ccccc3CCC2CCC1Cc1ccccc1` (single isomer, unassigned; (-)) [Example 78, (-) 2-Methyl-1,3,4,5,5a,6,7,11b-octahydro-3-phenylmethyl-2H-naphth[1,2-c]azepine hydrochloride], the concentration for half-maximal inhibition (IC50) in the assay on norepinephrine uptake is 0.0097 µM; in the assay with dopamine uptake, 0.189 µM; with 5-HT (serotonin) uptake it was less than 1 µM.
In the same order, the values of `CCN1CC2c3ccc(OC)cc3CCC2C1Cc1ccccc1` (stereo not drawn) [Example 3, cis-2-Ethyl-2,3,3a,4,5,9b-hexahydro-7-methoxy-3-phenylmethyl-1H-benz[e]isoindole methanesulfonate salt] are 0.018 µM, 0.225 µM and 1.4 µM.
Regarding `COc1ccc(C)c2c1CCC1C2CN(C)C1Cc1ccccc1` (stereo not drawn) [Example 38, cis-2,9-Dimethyl-2,3,3a,4,5,9b-hexahydro-6-methoxy-3-phenylmethyl-1H-benz[e]isoindole hydrochloride], the IC50 in the assay on norepinephrine uptake was 0.261 µM; with dopamine uptake, 1.33 µM; in the assay on 5-HT (serotonin) uptake it was 3.57 µM.
As for `CCN1CC2c3cccc(OC)c3CCC2C1Cc1cccc(F)c1` (stereo not drawn) [Example 25, cis-2-Ethyl-3-(3-fluorophenyl)methyl-2,3,3a,4,5,9b-hexahydro-6-methoxy-1H-benz[e]isoindole hydrochloride], the IC50 amounted to 0.027 µM in the assay with norepinephrine uptake, 0.197 µM with dopamine uptake and 1.9 µM with 5-HT (serotonin) uptake.
Turning to `CCN1CC2c3cccc(OC)c3CCC2C1Cc1ccccc1` (stereo not drawn) [Example 23, cis-2-Ethyl-2,3,3a,4,5,9 b-hexahydro-6-methoxy-3-phenylmethyl-1H-benz[e]isoindole methanesulfonic acid salt], the results for the IC50 with norepinephrine uptake, with dopamine uptake and in the assay with 5-HT (serotonin) uptake were 0.028 µM, 0.141 µM and 1.43 µM, respectively.
In the case of `CC1C[C@H]2c3ccccc3CC[C@H]2CN1Cc1ccccc1` (relative stereo) [Example 71A, cis-2-Methyl-1,2,3,4,4a,5,6,10b-octahydro-3-phenylmethyl-benz[f]isoquinoline], the figures for the concentration for half-maximal inhibition (IC50) with norepinephrine uptake, with dopamine uptake and in the assay on 5-HT (serotonin) uptake were 0.0098 µM, 0.45 µM and 2.12 µM, respectively.
